# Source: US12486303B2, “Use of peptide for inhibiting functions and expressions of multiple disease biomarkers” (NIBEC CO., LTD., priority 2018, dated 2025)
# Peptide text beside a SMILES is read from it.
# Columns and labels:
# HDAC5 protein = biological target: T1, HDAC5 protein (Homo sapiens, UniProt Q9UQL6); assay: Biacore T200 binding affinity to immobilised HDAC5 protein; details: CM5 chip, 1:1 binding model; for kon: read-out: ka
# T1 construct: purchased Abcam
# Procedure: For this purpose, HDAC5 protein (Abcam, MA, USA) was dissolved in sodium acetate buffer (pH 4.5), and was bound to a dextran-covered sensor chip surface (CM5 chip) using N-hydroxysuccinimide (NHS) and N-ethyl-N0-(3-dimethylaminopropyl)-carbodiimide hydrochloride (EDAC) as crosslinkers. The unreacted active group of dextran was blocked by the addition of ethanolamine (1M) thereto. The number of HDAC5 binding to the chip was measured as 4440RU (1000 RU=1 ng/mm^2). […] Rate constants for association (ka) and dissociation (kd), and a dissociation constant (KD) were calculated using BIAevaluation software and a 1:1 binding model.
# [1] = tested on: collagen-induced arthritis (CIA) rats; assay: Collagen-induced arthritis animal model; format: in vivo, Wistar rats
# Text: In order to determine whether or not the peptide according to the present invention is effective in treating rheumatoid arthritis in vivo, the effect of treating arthritis thereof was detected in a collagen-induced arthritis animal model. For this purpose, female Wistar rats (105-135 g, n=67) were purchased from Harlan Co. Ltd. (Indianapolis, IN, USA). All rats were bred in a pathogen-free environment and sterilized standard rat feed (Harlan Co. Ltd, USA) and water were freely fed to the rats. Animal experiments were conducted with the approval of the Institutional Animal Care and Use Committee (IACUC) of Seoul National University. Collagen-induced arthritis was induced in a known manner (Nishikawa et al., Arthritis and rheumatism. 2003; 48:2670-81).
# Specifically, 500 μg of bovine collagen type II was injected along with a mixture of 0.5 mL of 0.1 M acetic acid and 0.5 mL of Freund's incomplete adjuvant into rat muscle. On the 7th day, 0.5 mL of 0.1 M acetic acid and 0.5 mL of Freund's incomplete adjuvant were further inoculated along with 250 μg of bovine collagen type II to produce collagen-induced arthritis (CIA) rats. The rats were classified into a CIA-induced group (n=10), a CIA-induced group injected with a low concentration of the peptide of SEQ ID NO: 1 (LD AIP, 15 mg/kg, n=10), a CIA-induced group injected with a high concentration of the peptide of SEQ ID NO: 1 (HD AIP, 30 mg/kg, n=10), a CIA-induced group injected with etanercept (Enbrel) (10 mg/kg, n=10), and a normal group (n=6). From 28 days after the first collagen injection, the peptide of SEQ ID NO: 1 was injected subcutaneously into the back of the neck twice a week over 4 weeks. Etanercept was injected intraperitoneally three times a week over 4 weeks. Swelling of both hind paws was measured twice using a plethysmometer (LE7500 N, IWOO Scientific Corporation, KOREA) on day 22, 29, 31, 35, 38, 42, 45, 49, 52, and 56. The plethysmometer was used after calibration to a weight of 3 mL. The measured area was marked by drawing a line, and measurement was conducted adjacent to the ankle. Hind paw swelling increase (%) and hind paw swelling inhibition (%) were calculated using the following equations.
# In order to observe the degree of bone damage in the hind paw, microcomputed tomography (micro-CT) was performed using a SkyScan 1172 (SkyScan, Aartselaar, Belgium). The total volume (TV; mm^3), bone volume (BV; mm^3) and bone volume fraction (BV/TV; %) were analyzed using CTAn software. On the 57th day, rats were sacrificed and subjected to histological analysis. Both hind paws and joints were collected, fixed in 10% buffered formalin, and demineralized in 30% citrate-buffered formic acid at 4° ° C. for 3 days. Paraffin blocks were produced, sliced into sections with a thickness of 4 μm and stained with hematoxylin and eosin (H&E), and then the pathological score was evaluated with an optical microscope. The joint inflammation index was measured based on the following criteria (Shiozawa et al., J Clin Invest. 1997; 99 (6):1210-1216). 0, normal synovium; 1, synovial membrane hypertrophy and cell infiltrates; 2, pannus and cartilage erosion; 3, major erosion of cartilage and subchondral bone; and 4, loss of joint integrity and ankylosis.
# The rats were sacrificed and systemic blood was collected, and the concentrations of TNF-α and IL-6 in the blood were measured with an ELISA kit (R&D, Minneapolis, MN, USA).
# T1 sequence (Q9UQL6 whole entry, species assumed): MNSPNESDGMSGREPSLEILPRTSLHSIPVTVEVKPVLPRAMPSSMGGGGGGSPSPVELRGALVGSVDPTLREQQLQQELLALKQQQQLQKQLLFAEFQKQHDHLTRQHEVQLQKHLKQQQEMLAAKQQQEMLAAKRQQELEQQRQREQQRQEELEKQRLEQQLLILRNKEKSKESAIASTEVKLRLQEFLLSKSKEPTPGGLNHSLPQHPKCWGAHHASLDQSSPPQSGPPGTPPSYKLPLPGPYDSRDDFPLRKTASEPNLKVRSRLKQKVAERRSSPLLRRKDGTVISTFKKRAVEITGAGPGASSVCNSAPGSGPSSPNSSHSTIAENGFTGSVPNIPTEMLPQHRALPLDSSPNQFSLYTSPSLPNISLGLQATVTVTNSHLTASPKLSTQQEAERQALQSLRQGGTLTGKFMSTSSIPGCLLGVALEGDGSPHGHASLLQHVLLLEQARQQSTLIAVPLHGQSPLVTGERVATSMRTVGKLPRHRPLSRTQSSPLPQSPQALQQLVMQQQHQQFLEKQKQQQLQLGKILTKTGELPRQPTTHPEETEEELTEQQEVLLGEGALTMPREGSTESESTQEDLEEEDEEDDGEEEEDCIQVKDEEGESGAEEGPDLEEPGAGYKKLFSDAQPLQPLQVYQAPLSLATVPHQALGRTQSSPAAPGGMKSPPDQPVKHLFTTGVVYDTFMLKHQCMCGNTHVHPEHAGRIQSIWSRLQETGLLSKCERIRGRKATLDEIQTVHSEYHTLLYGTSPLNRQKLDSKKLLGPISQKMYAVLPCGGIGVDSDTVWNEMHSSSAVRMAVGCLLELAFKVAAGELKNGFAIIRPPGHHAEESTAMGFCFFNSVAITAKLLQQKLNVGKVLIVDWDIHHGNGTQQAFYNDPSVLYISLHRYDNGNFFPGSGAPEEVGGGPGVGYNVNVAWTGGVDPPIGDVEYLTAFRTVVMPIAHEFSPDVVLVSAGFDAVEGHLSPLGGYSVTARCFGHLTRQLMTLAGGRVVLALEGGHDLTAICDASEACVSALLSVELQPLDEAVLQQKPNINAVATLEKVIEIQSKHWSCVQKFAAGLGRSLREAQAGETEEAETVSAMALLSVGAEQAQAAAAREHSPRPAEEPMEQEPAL
Molecule,kd (HDAC5 protein) [s⁻¹],kon (HDAC5 protein) [M⁻¹ s⁻¹],Kd (HDAC5 protein) [nM],other results
CSCC[C@H](NC(=O)[C@H](CCCCN)NC(=O)CN)C(=O)N[C@@H](CO)C(=O)N[C@H](C(=O)N[C@@H](CCCNC(=N)N)C(=O)NCC(=O)N[C@@H](CCCNC(=N)N)C(=O)N[C@@H](CCCCN)C(=O)N[C@@H](CS)C(=O)N[C@@H](CS)C(=O)N[C@@H](CCCNC(=N)N)C(=O)N[C@@H](CCCNC(=N)N)C(=O)N[C@@H](CCCCN)C(=O)N[C@@H](CCCCN)C(=O)O)[C@@H](C)O [SEQ ID NO: 5] (H-GKMSTRGRKCCRRKK-OH; N-terminus and C-terminus assumed),0.03088,65900,,
CSCC[C@H](NC(=O)[C@H](CS)NC(=O)[C@H](CCCCN)NC(=O)[C@H](CCCNC(=N)N)NC(=O)CNC(=O)[C@H](CCCNC(=N)N)NC(=O)[C@@H](NC(=O)[C@H](CO)NC(=O)[C@H](CS)NC(=O)[C@H](CCCCN)NC(=O)CN)[C@@H](C)O)C(=O)N[C@@H](CCCNC(=N)N)C(=O)N[C@@H](CCCNC(=N)N)C(=O)N[C@@H](CCCCN)C(=O)N[C@@H](CCCCN)C(=O)O [SEQ ID NO: 2] (H-GKCSTRGRKCMRRKK-OH; N-terminus and C-terminus assumed),0.06872,74400,,
etanercept [reference compound],,,,"Concentration of IL-6 in blood ([1]; ELISA, high concentration of peptide or etanercept, CIA-induced group 109 pg/ml): 24 pg/mL; Concentration of TNF-α in blood ([1]; ELISA, high concentration of peptide or etanercept, CIA-induced group 128 pg/ml): 39 pg/mL; Microscopic observation of joint tissues (inflammation, H&E) ([1]; FIG. 4A): results similar to the CIA-induced group injected with a low concentration of SEQ ID NO: 1; Hind paw swelling inhibition (%) ([1]; etanercept 10 mg/kg intraperitoneally): 37%; Hind paw swelling (%) ([1]; peptide 15 or 30 mg/kg subcutaneously twice a week, etanercept 10 mg/kg intraperitoneally three times a week, 4 weeks): decreased hind paw swelling (%) within 35 to 56 days (P<0.05); Inflammation index ([1]; score 0-4, CIA-induced group 3.3±0.67): 2.3±1.16"
CSCC[C@H](NC(=O)[C@H](CCCCN)NC(=O)CN)C(=O)N[C@@H](CO)C(=O)N[C@H](C(=O)N[C@@H](CCCNC(=N)N)C(=O)NCC(=O)N[C@@H](CCCNC(=N)N)C(=O)N[C@@H](CCCCN)C(=O)N[C@@H](CCSC)C(=O)N[C@@H](CCSC)C(=O)N[C@@H](CCCNC(=N)N)C(=O)N[C@@H](CCCNC(=N)N)C(=O)N[C@@H](CCCCN)C(=O)N[C@@H](CCCCN)C(=O)O)[C@@H](C)O [SEQ ID NO: 8] (H-GKMSTRGRKMMRRKK-OH; N-terminus and C-terminus assumed),0.004776,55000,86.8,
CSCC[C@H](NC(=O)[C@H](CCCCN)NC(=O)[C@H](CCCNC(=N)N)NC(=O)CNC(=O)[C@H](CCCNC(=N)N)NC(=O)[C@@H](NC(=O)[C@H](CO)NC(=O)[C@H](CS)NC(=O)[C@H](CCCCN)NC(=O)CN)[C@@H](C)O)C(=O)N[C@@H](CCSC)C(=O)N[C@@H](CCCNC(=N)N)C(=O)N[C@@H](CCCNC(=N)N)C(=O)N[C@@H](CCCCN)C(=O)N[C@@H](CCCCN)C(=O)O [SEQ ID NO: 4] (H-GKCSTRGRKMMRRKK-OH; N-terminus and C-terminus assumed),0.06788,72200,940,
CSCC[C@H](NC(=O)[C@H](CCCCN)NC(=O)CN)C(=O)N[C@@H](CO)C(=O)N[C@H](C(=O)N[C@@H](CCCNC(=N)N)C(=O)NCC(=O)N[C@@H](CCCNC(=N)N)C(=O)N[C@@H](CCCCN)C(=O)N[C@@H](CCSC)C(=O)N[C@@H](CS)C(=O)N[C@@H](CCCNC(=N)N)C(=O)N[C@@H](CCCNC(=N)N)C(=O)N[C@@H](CCCCN)C(=O)N[C@@H](CCCCN)C(=O)O)[C@@H](C)O [SEQ ID NO: 6] (H-GKMSTRGRKMCRRKK-OH; N-terminus and C-terminus assumed),0.04463,100000,444,
CSCC[C@H](NC(=O)[C@H](CCCCN)NC(=O)[C@H](CCCNC(=N)N)NC(=O)CNC(=O)[C@H](CCCNC(=N)N)NC(=O)[C@@H](NC(=O)[C@H](CO)NC(=O)[C@H](CS)NC(=O)[C@H](CCCCN)NC(=O)CN)[C@@H](C)O)C(=O)N[C@@H](CS)C(=O)N[C@@H](CCCNC(=N)N)C(=O)N[C@@H](CCCNC(=N)N)C(=O)N[C@@H](CCCCN)C(=O)N[C@@H](CCCCN)C(=O)O [SEQ ID NO: 3] (H-GKCSTRGRKMCRRKK-OH; N-terminus and C-terminus assumed),0.05953,82100,,
CSCC[C@H](NC(=O)[C@H](CCCCN)NC(=O)CN)C(=O)N[C@@H](CO)C(=O)N[C@H](C(=O)N[C@@H](CCCNC(=N)N)C(=O)NCC(=O)N[C@@H](CCCNC(=N)N)C(=O)N[C@@H](CCCCN)C(=O)N[C@@H](CS)C(=O)N[C@@H](CCSC)C(=O)N[C@@H](CCCNC(=N)N)C(=O)N[C@@H](CCCNC(=N)N)C(=O)N[C@@H](CCCCN)C(=O)N[C@@H](CCCCN)C(=O)O)[C@@H](C)O [SEQ ID NO: 7] (H-GKMSTRGRKCMRRKK-OH; N-terminus and C-terminus assumed),0.04757,67500,704,
